The subject of assay [1] is HUE cells. The assay is described as follows: Viability assay (MIT assay), HUE cells. The assay is classed as cell-based, human. The note with it: for EC50: Homo sapiens, 48 h, 48 h incubation.
The test system of a further assay is BAE cells. The assay is described as follows: Viability assay (MIT assay), BAE cells. Format: cell-based, bovine. The following applies: for EC50: Bos taurus.
Assay [2] deals with subconfluent primary BAE cells. The assay is described as follows: Apoptotic morphology (phase contrast, Hoechst 33342), BAE cells. The assay is classed as cell-based, bovine. The note with it: subconfluent BAE cells; 50 µM for 15 - 24 h, or 10 µM after 48 hours.
The subject of assay [3] is HUE cells. Put plainly: Apoptotic morphology (phase contrast, Hoechst 33342), HUE cells. Format: cell-based, human. The note with it: subconfluent HUE cells, 50 µM, 18 - 24 hours. The text has this:
Phase contrast pictures are shown on the left, and identical areas which display the nuclear morphology after Hoechst staining are shown on the right. Arrowheads point at nuclei with apoptotic morphology. Scale bars are 50 µm.
Primary bovine aortic endothelial cells (BAE) were isolated from bovine pulmonary aorta according to the method of Schwartz (In Vitro 14 (1978), 966 - 980) and maintained in MDCB131 medium supplemented with 8% fetal calf serum (FCS), penicillin (100 lU/ml) and streptomycin (100 µg/ml) at 5% CO2. Human umbilical vein endothelial cells (HUE), an immortalized human umbilical vein endothelial cell line (ATCC CRL-1730) were cultured under the same conditions. Madin Darby canine kidney epithelial cells (MDCK; ATCC CLL-34) were grown in Dulbecco's Modified Eagle's Medium (DMEM) containing 10% FCS, penicillin and streptomycin.

Peptide text beside a SMILES is read from it. * marks the point of attachment. Cbz = O=C(OCc1ccccc1)*; OtBu = CC(C)(C)O*

For orientation: EC50 means the concentration that produces a half-maximal response. High values mean weaker potency, low ones greater potency. Turning to `CC[C@H](C)[C@H](NC(=O)OCc1ccccc1)C(=O)N[C@@H](CCC(=O)OC(C)(C)C)C(=O)N[C@@H](C)C(=O)N[C@H](C=O)CC(C)C` [PSI, carbobenzoxy-L-isoleucyl-y-t-butyl-L-glutamyl-L-alanyl-L-leucinal] (Cbz-IE(OtBu)AL-aldehyde), the x difference in the assay on HUE cells [1] (EC50 confluent versus subconfluent, 2880 min) amounted to 1119 fold; in the assay on BAE cells (BAE, EC50 confluent versus subconfluent, 2880 min), 340 fold. The EC50 came to 7.83 µM in the assay on HUE cells [1] (con (grown to confluency)); 0.007 µM in the assay on HUE cells [1] (sub (low density, subconfluent)); 8.15 µM in the assay with BAE cells (96 h, BAE cells seeded at high density, grown to confluency for 4 days); 8.15 µM with BAE cells (BAE, con (grown to confluency for 4 days), 48 h incubation); 0.024 µM in the assay on BAE cells (BAE, sub (low density, subconfluent), 48 h incubation, viability reduced to 50% of DMSO control). In addition, the “morphological changes associated with programmed cell death” value in assay [2] is “cytoplasmic shrinkage and bleb formation as well as extensive nuclear condensation and fragmentation”. Further, the “induction of apoptosis (nuclear morphology)” value in the assay on HUE cells [3] is “Induction of apoptosis”.

The values above are taken from patent EP1053750A1, “Use of proteasome-inhibitor for the induction of programmed cell death (apoptosis)” (Max-Planck-Gesellschaft zur Förderung der Wissenschaften …, priority 1999, dated 2000).
